# Experiments:
# Assay in all cases: Example B1 herbicidal action, post-emergence, 96-cell seed trays, climatic chamber
# Type in all cases: in vivo
# [1] = tested on: Stellaria media (STEME); conditions: Application post-emergence, 1000 mg/l spray equivalent to 1000 g/ha, evaluated after 9 days (100=total damage to plant, 0=no damage to plant)
# Procedure, shortened: (§1)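 Plants at 8–9 days post-sowing (23/17 °C, 13 h light, 50–60% humidity) sprayed post-emergence with 1000 mg/l active ingredient in 10% DMSO, equivalent to 1000 g/ha. Grown on at 24/19 °C, watered twice daily; damage scored after 9 days (0 = none, 100 = total).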
# [2] = tested on: Amaranthus retroflexus (AMARE); conditions: Application post-emergence, 1000 mg/l spray equivalent to 1000 g/ha, evaluated after 9 days
# Procedure, shortened: as §1
# [3] = tested on: Solanum nigrum (SOLNI); conditions: Application post-emergence, 1000 mg/l spray equivalent to 1000 g/ha, evaluated after 9 days (100=total damage to plant, 0=no damage to plant)
# Procedure, shortened: as §1
# [4] = tested on: Nasturtium officinale (NAAOF); set-up: scale not given here; conditions: Application post-emergence, 1000 mg/l spray equivalent to 1000 g/ha, evaluated after 9 days (100=total damage to plant, 0=no damage to plant)
# Procedure, shortened: as §1
structure (smiles),measurement,setting,value
CCn1c(=O)c(-c2c(C)cc(C)cc2C)c(OC(C)=O)c2nccnc21 [Compound C81],"damage to plant, Stellaria media (STEME)",[1],8
same,"damage to plant, Amaranthus retroflexus (AMARE)",[2],5
same,"damage to plant, Solanum nigrum (SOLNI)",[3],4
same,"damage to plant, Nasturtium officinale (NAAOF)",[4],8
CC(C)C(=O)Oc1c(-c2c(F)ccc(F)c2Cl)c(=O)n(C)c2nc(Cl)cnc12 [Compound C82],"damage to plant, Stellaria media (STEME)",[1],0
same,"damage to plant, Amaranthus retroflexus (AMARE)",[2],4
same,"damage to plant, Solanum nigrum (SOLNI)",[3],0
same,"damage to plant, Nasturtium officinale (NAAOF)",[4],0
CC(C)C(=O)Oc1c(-c2c(F)ccc(F)c2Cl)c(=O)n(C)c2ncc(Cl)nc12 [Compound C83],"damage to plant, Stellaria media (STEME)",[1],0
same,"damage to plant, Amaranthus retroflexus (AMARE)",[2],0
same,"damage to plant, Solanum nigrum (SOLNI)",[3],1
same,"damage to plant, Nasturtium officinale (NAAOF)",[4],0
Cn1c(=O)c(-c2c(F)ccc(F)c2Cl)c(OC(=O)c2ccccc2)c2nccnc21 [Compound C84],"damage to plant, Stellaria media (STEME)",[1],7
same,"damage to plant, Amaranthus retroflexus (AMARE)",[2],6
same,"damage to plant, Solanum nigrum (SOLNI)",[3],8
same,"damage to plant, Nasturtium officinale (NAAOF)",[4],5
COc1cccc(C(=O)Oc2c(-c3c(F)ccc(F)c3Cl)c(=O)n(C)c3nccnc23)c1 [Compound C85],"damage to plant, Stellaria media (STEME)",[1],4
same,"damage to plant, Amaranthus retroflexus (AMARE)",[2],5
same,"damage to plant, Solanum nigrum (SOLNI)",[3],4
same,"damage to plant, Nasturtium officinale (NAAOF)",[4],3
Cn1c(=O)c(-c2c(F)ccc(F)c2Cl)c(OC(=O)c2ccco2)c2nccnc21 [Compound C86],"damage to plant, Stellaria media (STEME)",[1],6
same,"damage to plant, Amaranthus retroflexus (AMARE)",[2],7
same,"damage to plant, Solanum nigrum (SOLNI)",[3],7
same,"damage to plant, Nasturtium officinale (NAAOF)",[4],6
CCC(C)C(=O)Oc1c(-c2c(F)ccc(F)c2Cl)c(=O)n(C)c2nccnc12 (centres unmarked) [Compound C87],"damage to plant, Stellaria media (STEME)",[1],2
same,"damage to plant, Amaranthus retroflexus (AMARE)",[2],6
same,"damage to plant, Solanum nigrum (SOLNI)",[3],6
same,"damage to plant, Nasturtium officinale (NAAOF)",[4],4
CCC(CC)C(=O)Oc1c(-c2c(F)ccc(F)c2Cl)c(=O)n(C)c2nccnc12 [Compound C89],"damage to plant, Stellaria media (STEME)",[1],5
same,"damage to plant, Amaranthus retroflexus (AMARE)",[2],5
same,"damage to plant, Solanum nigrum (SOLNI)",[3],4
same,"damage to plant, Nasturtium officinale (NAAOF)",[4],5
CC(C)=CC(=O)Oc1c(-c2c(F)ccc(F)c2Cl)c(=O)n(C)c2nccnc12 [Compound C90],"damage to plant, Stellaria media (STEME)",[1],7
same,"damage to plant, Amaranthus retroflexus (AMARE)",[2],3
same,"damage to plant, Solanum nigrum (SOLNI)",[3],8
same,"damage to plant, Nasturtium officinale (NAAOF)",[4],6
Cn1c(=O)c(-c2c(F)ccc(F)c2Cl)c(OC(=O)c2cccs2)c2nccnc21 [Compound C91],"damage to plant, Stellaria media (STEME)",[1],8
same,"damage to plant, Amaranthus retroflexus (AMARE)",[2],7
same,"damage to plant, Solanum nigrum (SOLNI)",[3],8
same,"damage to plant, Nasturtium officinale (NAAOF)",[4],4
CCCCC(CC)C(=O)Oc1c(-c2c(F)ccc(F)c2Cl)c(=O)n(C)c2nccnc12 (centres unmarked) [Compound C92],"damage to plant, Stellaria media (STEME)",[1],6
same,"damage to plant, Amaranthus retroflexus (AMARE)",[2],5
same,"damage to plant, Solanum nigrum (SOLNI)",[3],7
same,"damage to plant, Nasturtium officinale (NAAOF)",[4],2
CCC(C(=O)Oc1c(-c2c(F)ccc(F)c2Cl)c(=O)n(C)c2nccnc12)c1ccccc1 (centres unmarked) [Compound C94],"damage to plant, Stellaria media (STEME)",[1],6
same,"damage to plant, Amaranthus retroflexus (AMARE)",[2],5
same,"damage to plant, Solanum nigrum (SOLNI)",[3],4
same,"damage to plant, Nasturtium officinale (NAAOF)",[4],7
CCCC(C)C(=O)Oc1c(-c2c(F)ccc(F)c2Cl)c(=O)n(C)c2nccnc12 (centres unmarked) [Compound C95],"damage to plant, Stellaria media (STEME)",[1],7
same,"damage to plant, Amaranthus retroflexus (AMARE)",[2],6
same,"damage to plant, Solanum nigrum (SOLNI)",[3],5
same,"damage to plant, Nasturtium officinale (NAAOF)",[4],7
CCCC(CCC)C(=O)Oc1c(-c2c(F)ccc(F)c2Cl)c(=O)n(C)c2nccnc12 [Compound C96],"damage to plant, Stellaria media (STEME)",[1],6
same,"damage to plant, Amaranthus retroflexus (AMARE)",[2],5
same,"damage to plant, Solanum nigrum (SOLNI)",[3],3
same,"damage to plant, Nasturtium officinale (NAAOF)",[4],3
CC(CC(=O)Oc1c(-c2c(F)ccc(F)c2Cl)c(=O)n(C)c2nccnc12)CC(C)(C)C (centres unmarked) [Compound C98],"damage to plant, Stellaria media (STEME)",[1],1
same,"damage to plant, Amaranthus retroflexus (AMARE)",[2],5
same,"damage to plant, Solanum nigrum (SOLNI)",[3],2
same,"damage to plant, Nasturtium officinale (NAAOF)",[4],2
Cc1noc(C)c1C(=O)Oc1c(-c2c(F)ccc(F)c2Cl)c(=O)n(C)c2nccnc12 [Compound C100],"damage to plant, Stellaria media (STEME)",[1],3
same,"damage to plant, Amaranthus retroflexus (AMARE)",[2],6
same,"damage to plant, Solanum nigrum (SOLNI)",[3],5
same,"damage to plant, Nasturtium officinale (NAAOF)",[4],6
C=CCCCCCCCCC(=O)Oc1c(-c2c(F)ccc(F)c2Cl)c(=O)n(C)c2nccnc12 [Compound C101],"damage to plant, Stellaria media (STEME)",[1],2
same,"damage to plant, Amaranthus retroflexus (AMARE)",[2],7
same,"damage to plant, Solanum nigrum (SOLNI)",[3],4
same,"damage to plant, Nasturtium officinale (NAAOF)",[4],3

# — patent publication US8133847B2, “Pyrido[2,3-B]pyrazine derivatives useful as herbicidal compounds” (Syngenta Limited, priority 2006, dated 2012)
